Results as given in patent US20230271950A1, “ANTIBACTERIAL PICOLINAMIDE COMPOUNDS” (University of Notre Dame Du Lac, priority 2020, published 2023).
Like-named read-outs stand apart in the source and are kept apart here.

Tests used:
C. difficile = assay: MIC by broth microdilution against C. difficile strains; type: cell-based, Clostridioides difficile
Bacteroides fragilis = assay: MIC against gut bacterium Bacteroides fragilis; type: cell-based; details: Bacteroides fragilis, Bacteroides fragilis strain HM-709, read-out: MIC
Fusobacterium nucleatum = assay: MIC against gut bacterium Fusobacterium nucleatum; type: cell-based; details: Fusobacterium nucleatum, Fusobacterium nucleatum strain HM-992, read-out: MIC
Eubacterium sp. = assay: MIC against gut bacterium Eubacterium sp.; type: cell-based; details: Eubacterium, Eubacterium sp. strain HM-178, read-out: MIC
Bifidobacterium longum = assay: MIC against gut bacterium Bifidobacterium longum; type: cell-based; details: Bifidobacterium longum, Bifidobacterium longum strain HM-846, read-out: MIC
Corynebacterium spp. = assay: MIC against gut bacterium Corynebacterium spp.; type: cell-based; details: Corynebacterium, Corynebacterium spp. strain HM-784
MRSA (NRS70, NRS119) = assay: MIC against MRSA strains; type: cell-based, Staphylococcus aureus; details: for MIC: Staphylococcus aureus, read-out: MIC
Veillonella sp. HM-49 = assay: MIC against gut bacterium Veillonella sp.; type: cell-based
E. faecium NCTC7171 = assay: MIC against E. faecium; type: cell-based, Enterococcus faecium; details: Enterococcus faecium

Work on `O=C(O)c1ccc2oc(NC(=O)c3cc(Oc4cccc(OC(F)(F)F)c4)ccn3)nc2c1` [Compound 1, Sodium 2-(4-(3-(trifluoromethoxy)phenoxy)picolinamido)benzo[d]oxazole-5-carboxylate] yielded an MIC (C. difficile; C. difficile NR-49324, Table 9) of 0.125 mg/L, an MIC (C. difficile; C. difficile NR-49325, Table 9) of 0.125 mg/L and an MIC (C. difficile; C. difficile NR-49326, Table 9) of 0.125 mg/L. The MIC (C. difficile; C. difficile NR-49329, Table 9) was 0.125 mg/L, the MIC (C. difficile; C. difficile, Table 8) was 0.125 mg/L and the MIC (C. difficile; Clostridioides difficile) was 0.125 mg/L. It also gave an MIC (C. difficile; Clostridioides difficile, ATCC43255) of 0.125 mg/L, an MIC (C. difficile; Clostridioides difficile, ATCC43255, C. difficile ATCC 43255, read-out: MIC against C. difficile) of 0.12 mg/L and an MIC (C. difficile; Clostridioides difficile, ATCC43598) of 0.125 mg/L. For the same compound, the MIC (C. difficile; Clostridioides difficile, BAA1801) was 0.125 mg/L, the MIC (C. difficile; Clostridioides difficile, BAA1803, C. difficile BAA-1803, Table 7, read-out: MIC) was 0.0625 mg/L and the MIC (C. difficile; Clostridioides difficile, BAA1803, C. difficile BAA-1803, Table 9, read-out: MIC) was 0.06 mg/L. For the same compound, the MIC (C. difficile; Clostridioides difficile, BAA1804) was 0.125 mg/L, the MIC (C. difficile; Clostridioides difficile, BAA1812) was 0.125 mg/L and the MIC (C. difficile; Clostridioides difficile, BAA1814) was 0.125 mg/L. The MIC (C. difficile; Clostridioides difficile, BAA1870) was 0.125 mg/L, the MIC (C. difficile; Clostridioides difficile, C. difficile 23828 (FR, fidaxomicin-resistant), Table 7, read-out: MIC) was 0.25 mg/L and the MIC (C. difficile; Clostridioides difficile, C. difficile 23828, clinical isolate resistant to FDX, Table 1, read-out: MIC) was 0.25 mg/L. For the same compound, the MIC (C. difficile; Clostridioides difficile, C. difficile 23828, Table 9, read-out: MIC) was 0.25 mg/L, the MIC (C. difficile; Clostridioides difficile, C. difficile 24531 (VR, vancomycin-resistant), Table 7, read-out: MIC) was 0.25 mg/L and the MIC (C. difficile; Clostridioides difficile, C. difficile 24531, Table 9, read-out: MIC) was 0.25 mg/L. The MIC (C. difficile; Clostridioides difficile, C. difficile 26675 (MR, metronidazole-resistant), Table 7, read-out: MIC) was 0.25 mg/L, the MIC (C. difficile; Clostridioides difficile, C. difficile 26675, clinical isolate resistant to MTZ, Table 1, read-out: MIC) was 0.25 mg/L and the MIC (C. difficile; Clostridioides difficile, C. difficile 26675, Table 9, read-out: MIC) was 0.25 mg/L. It also gave an MIC (C. difficile; Clostridioides difficile, C. difficile HM-88, Table 9, read-out: MIC) of 0.25 mg/L, an MIC (C. difficile; Clostridioides difficile, C. difficile NR49294, Table 7, read-out: MIC) of 0.0625 mg/L and an MIC (C. difficile; Clostridioides difficile, C. difficile NR49294, Table 9, read-out: MIC) of 0.06 mg/L. For the same compound, the MIC (C. difficile; Clostridioides difficile, C. difficile NR49302, Table 7, read-out: MIC) was 0.0625 mg/L, the MIC (C. difficile; Clostridioides difficile, C. difficile NR49302, Table 9, read-out: MIC) was 0.06 mg/L and the MIC (C. difficile; Clostridioides difficile, C. difficile NR49305, Table 7, read-out: MIC) was 0.0625 mg/L. The MIC (C. difficile; Clostridioides difficile, C. difficile NR49305, Table 9, read-out: MIC) was 0.06 mg/L, the MIC (C. difficile; Clostridioides difficile, C. difficile NR49318, Table 7, read-out: MIC) was 0.06 mg/L and the MIC (C. difficile; Clostridioides difficile, C. difficile NR49318, Table 9, read-out: MIC) was 0.06 mg/L. The MIC (C. difficile; Clostridioides difficile, C. difficile NR-13429, Table 9, read-out: MIC) was 0.06 mg/L, the MIC (C. difficile; Clostridioides difficile, C. difficile NR-13431, Table 9, read-out: MIC) was 0.06 mg/L and the MIC (C. difficile; Clostridioides difficile, C. difficile NR-13433, Table 9, read-out: MIC) was 0.25 mg/L. For the same compound, the MIC (C. difficile; Clostridioides difficile, C. difficile NR-32885, Table 9, read-out: MIC) was 0.25 mg/L, the MIC (C. difficile; Clostridioides difficile, C. difficile NR-32890, Table 9, read-out: MIC) was 0.25 mg/L and the MIC (C. difficile; Clostridioides difficile, C. difficile NR-32891, Table 9, read-out: MIC) was 0.25 mg/L. It also gave an MIC (C. difficile; Clostridioides difficile, C. difficile NR-32895, Table 9, read-out: MIC) of 0.25 mg/L, an MIC (C. difficile; Clostridioides difficile, C. difficile NR-32896, Table 9, read-out: MIC) of 0.25 mg/L and an MIC (C. difficile; Clostridioides difficile, C. difficile NR-32903, Table 9, read-out: MIC) of 0.25 mg/L. It also gave an MIC (C. difficile; Clostridioides difficile, C. difficile NR-49281, Table 9, read-out: MIC) of 0.06 mg/L, an MIC (C. difficile; Clostridioides difficile, C. difficile NR-49283, Table 9, read-out: MIC) of 0.06 mg/L and an MIC (C. difficile; Clostridioides difficile, C. difficile NR-49284, Table 9, read-out: MIC) of 0.25 mg/L. It also gave an MIC (C. difficile; Clostridioides difficile, C. difficile NR-49285, Table 9, read-out: MIC) of 0.03 mg/L, an MIC (C. difficile; Clostridioides difficile, C. difficile NR-49287, Table 9, read-out: MIC) of 0.06 mg/L and an MIC (C. difficile; Clostridioides difficile, C. difficile NR-49289, Table 9, read-out: MIC) of 0.25 mg/L. The MIC (C. difficile; Clostridioides difficile, C. difficile NR-49297, Table 9, read-out: MIC) was 0.06 mg/L, the MIC (C. difficile; Clostridioides difficile, C. difficile NR-49298, Table 9, read-out: MIC) was 0.06 mg/L and the MIC (C. difficile; Clostridioides difficile, C. difficile NR-49304, Table 9, read-out: MIC) was 0.25 mg/L. The MIC (C. difficile; Clostridioides difficile, C. difficile NR-49306, Table 9, read-out: MIC) was 0.25 mg/L, the MIC (C. difficile; Clostridioides difficile, C. difficile NR-49311, Table 9, read-out: MIC) was 0.25 mg/L and the MIC (C. difficile; Clostridioides difficile, C. difficile NR-49313, Table 9, read-out: MIC) was 0.06 mg/L. It also gave an MIC (C. difficile; Clostridioides difficile, C. difficile NR-49321, Table 9, read-out: MIC) of 0.25 mg/L, an MIC (C. difficile; Clostridioides difficile, C. difficile NR-49327, Table 9, read-out: MIC) of 0.25 mg/L and an MIC (C. difficile; Clostridioides difficile, C. difficile NR-49328, Table 9, read-out: MIC) of 0.06 mg/L. It also gave an MIC50 (C. difficile; Clostridioides difficile, 101 C. difficile strains) of 0.12 mg/L, an MIC90 (C. difficile; Clostridioides difficile, 101 C. difficile strains, read-out: MIC90 (101 strains)) of 0.25 mg/L and a Selectivity (C. difficile; MIC MRSA NRS70/MIC C. difficile ATCC43255, Table 7) of 128. For the same compound, the Selectivity (C. difficile; Table 8) was 128, the MIC (Bacteroides fragilis; Table 1) was 2 mg/L and the MIC (Bacteroides fragilis; Table 7) was 4 mg/L. The MIC (Fusobacterium nucleatum; Table 1) was 4 mg/L, the MIC (Fusobacterium nucleatum; Table 7) was 4 mg/L and the MIC (Eubacterium sp.; Table 1) was 8 mg/L. For the same compound, the MIC (Eubacterium sp.; Table 7) was 16 mg/L, the MIC (Bifidobacterium longum; Table 1) was 16 mg/L and the MIC (Bifidobacterium longum; Table 7) was 16 mg/L. The MIC (Corynebacterium spp.; Table 1) was 8 mg/L, the MIC (Corynebacterium spp.; Table 7) was 8 mg/L and the “lower activity against MRSA” value (MRSA (NRS70, NRS119); MRSA versus C. difficile, Table 1) was 128 fold. For the same compound, the MIC (MRSA (NRS70, NRS119); MRSA NRS70, Table 1) was 16 mg/L, the MIC (MRSA (NRS70, NRS119); MRSA NRS70, Table 7) was 16 mg/L and the MIC (MRSA (NRS70, NRS119); MRSA NRS119, Table 1) was 16 mg/L. It also gave an MIC (Veillonella sp. HM-49; SP.HM49, Veillonella sp. HM-49, Table 1, read-out: MIC) of 16 mg/L, an MIC (Veillonella sp. HM-49; Veillonella sp. strain HM-49, Table 7) of 16 mg/L and an MIC (E. faecium NCTC7171; NCTC7171, E. faecium NCTC 7171, Table 10, unit inferred, read-out: Activity (MIC) against E. faecium) of at least 128 mg/L. It also gave an MIC (E. faecium NCTC7171; E. faecium NCTC7171, Table 1, read-out: MIC) of over 128 mg/L.
